Laboratory results published in ChEMBL document CHEMBL5344445, “Profiling the Linear Peptides of Venom from the Brazilian Scorpion Tityus serrulatus: Structural and Functional Characterization” (J Nat Prod, 2024).
Calls of active or inactive are those of the source. The rule behind the calls is not given here. Peptide text beside a SMILES is read from it.

Tests used:
[1] = Induction of Wistar rat mast cell degranulation assessed as beta-D-glusosaminidase release at 5 to 500 uM incubated for 15 mins relative to control; format: toxicity, cell-based; conditions: 0.25 h, dose 5-500 µM
[2] = Induction of edema formation in Swiss mouse at 2 ug, I.PL measured after 180 mins relative to control; format: toxicity; conditions: in vivo, other, 3 h
[3] = Effect on rearing activity in Swiss mouse assessed as increase in frequency at 2 ug, I.PL incubated for 3 to 15 mins by open field test relative to control; format: toxicity; conditions: in vivo, other, time 3-15 min
[4] = Induction of nociception in Swiss mouse at 2 ug, I.PL incubated for 60 mins by von frey test relative to control; format: toxicity; conditions: in vivo, other, 1 h
[5] = tested on: Escherichia coli; test: Antibacterial activity against Escherichia coli; format: functional, organism-based
[6] = Induction of edema formation in Swiss mouse at 2 ug, I.PL measured after 60 mins relative to control; format: toxicity; conditions: in vivo, other, 1 h
[7] = tested on: Streptococcus pneumoniae; test: Antibacterial activity against Streptococcus pneumoniae; format: functional, organism-based
[8] = Induction of nociception in Swiss mouse at 2 ug, I.PL incubated for 180 mins by von frey test relative to control; format: toxicity; conditions: in vivo, other, 3 h
[9] = tested on: Klebsiella aerogenes; test: Antibacterial activity against Enterobacter aerogenes; format: functional, organism-based
[10] = tested on: Staphylococcus aureus; test: Antibacterial activity against Staphylococcus aureus; format: functional, organism-based
[11] = Induction of Wistar rat mast cell lysis assessed as LDH release at 5 to 500 uM incubated for 5 mins in presence of NADH relative to control; format: toxicity, cell-based; conditions: dose 5-500 µM
[12] = Effect on locomotory activity in Swiss mouse assessed as decrease in frequency at 2 ug, I.PL incubated for 3 to 15 mins by open field test relative to control; format: toxicity; set-up: scale not given: the % may be the effect or the level left; conditions: in vivo, other, time 3-15 min
[13] = (§1) Hemolytic activity in Wistar rat RBC at 5 to 500 uM incubated for 120 mins; format: toxicity, cell-based, Erythrocyte; conditions: Wistar, red blood cells (erythrocytes), dose 5-500 µM, read-out: Activity
[14] = Induction of edema formation in Swiss mouse at 2 ug, I.PL measured after 300 mins relative to control; format: toxicity; conditions: in vivo, other, 5 h
[15] = Induction of nociception in Swiss mouse at 2 ug, I.PL incubated for 300 mins by von frey test relative to control; format: toxicity; conditions: in vivo, other, 5 h
[16] = tested on: Erythrocyte; test: as §1; format: toxicity, cell-based; conditions: erythrocyte, 2 h, 500 µM, dose 5-500 µM

Compound	Activity [1]	Activity ([3]; at 2 µg)	Activity ([4]; at 2 µg)	Activity [5]	Activity [7]	Activity ([8]; at 2 µg)	Activity [9]	Activity [10]	Activity [11]	Activity ([12]; dose 2 µg)	Activity ([15]; at 2 µg)	Activity ([2]; dose 2 µg)	Activity ([3]; dose 2 µg)	Activity ([4]; dose 2 µg)	Activity ([6]; dose 2 µg)	Activity ([8]; dose 2 µg)	Activity ([12]; at 2 µg)	Activity [16]	Activity ([14]; dose 2 µg)	Activity ([15]; dose 2 µg)	further results
H-DEGPKSDCKP-OH	Non-Toxic	41%	71%	inactive	inactive	71%	inactive	inactive	Non-Toxic	Non-Toxic	71%										Activity ([2]; at 2 µg): 71%; Activity ([6]; at 2 µg): 71%; hemolysis at 2 h, up to 500 µM [13]: ≤ 40%; Activity ([14]; at 2 µg): 71%
H-GLREKHVQ-OH	Non-Toxic			inactive	inactive		inactive	inactive	Non-Toxic			Non-Toxic	Non-Toxic	Non-Toxic	Non-Toxic	Non-Toxic	<= 40%	Non-Toxic	Non-Toxic	Non-Toxic	
H-ILTGKLKCK-OH	Non-Toxic		41%	inactive	inactive	41%	inactive	inactive	Non-Toxic	Non-Toxic	41%	Non-Toxic	Non-Toxic					Non-Toxic	Non-Toxic		Activity ([6]; at 2 µg): 71%
H-KPVEPVG-OH	Non-Toxic	41%	<= 40%	inactive	inactive	<= 40%	inactive	inactive	Non-Toxic	Non-Toxic	<= 40%	Non-Toxic			Non-Toxic			Non-Toxic	Non-Toxic		
H-IPEDIIKK-OH	<= 40%			inactive	inactive		inactive	inactive	<= 40%	Non-Toxic		Non-Toxic	Non-Toxic	Non-Toxic	Non-Toxic	Non-Toxic			Non-Toxic	Non-Toxic	hemolysis at 2 h, up to 500 µM [13]: ≤ 40%
H-GKGKEILGK-OH	Non-Toxic			inactive	inactive		inactive	inactive	Non-Toxic	Non-Toxic		Non-Toxic	Non-Toxic	Non-Toxic	Non-Toxic	Non-Toxic		Non-Toxic	Non-Toxic	Non-Toxic	
H-ILPNDK-OH	Non-Toxic			inactive	inactive		inactive	inactive	Non-Toxic	Non-Toxic		Non-Toxic	Non-Toxic	Non-Toxic	Non-Toxic	Non-Toxic			Non-Toxic	Non-Toxic	hemolysis at 2 h, up to 500 µM [13]: ≤ 40%
CC(C)C[C@H](NC(=O)CNC(=O)CNC(=O)[C@H](Cc1c[nH]cn1)NC(=O)[C@H](CC(=O)O)NC(=O)CNC(=O)[C@H](CO)NC(=O)[C@H](CC(C)C)NC(=O)[C@H](CC(C)C)NC(=O)[C@H](C)NC(=O)[C@H](CC(=O)O)NC(=O)[C@H](CS)NC(=O)CN)C(=O)N[C@@H](CC(C)C)C(=O)N[C@@H](CO)C(=O)N[C@@H](C)C(=O)N[C@@H](CC(N)=O)C(=O)NCC(=O)N[C@@H](CS)C(=O)O (H-GCDALLSGDHGGLLSANGC-OH)	Non-Toxic			inactive	inactive		inactive	inactive	Non-Toxic	Non-Toxic		Non-Toxic	Non-Toxic	Non-Toxic	Non-Toxic	Non-Toxic		Non-Toxic	Non-Toxic	Non-Toxic	
H-AEIDFSGIPEDIIKQI-OH	Non-Toxic	<= 40%	71%	inactive	inactive	71%	inactive	inactive	Non-Toxic		71%	Non-Toxic			Non-Toxic		<= 40%	Non-Toxic	Non-Toxic		
H-SESNTCG-OH	Non-Toxic	<= 40%	<= 40%	inactive	inactive	<= 40%	inactive	inactive	Non-Toxic	Non-Toxic	<= 40%	Non-Toxic			Non-Toxic			Non-Toxic	Non-Toxic		
H-KHFGKDSNFPF-NH2	Non-Toxic			inactive	inactive		inactive	inactive	Non-Toxic			Non-Toxic	Non-Toxic	Non-Toxic	Non-Toxic	Non-Toxic	<= 40%	Non-Toxic	Non-Toxic	Non-Toxic	
H-KETNAKPPA-OH	Non-Toxic	<= 40%	41%	inactive	inactive	71%	inactive	inactive	Non-Toxic		71%	Non-Toxic			Non-Toxic		<= 40%	Non-Toxic	Non-Toxic		
